Experimental data reported in patent US11578081B1, “Crystal form as inhibitor of ACC1 and ACC2, and preparation method therefor and use thereof” (ZHANGZHOU PIEN TZE HUANG PHARMACEUTICAL CO., LTD., priority 2019, dated 2023).

How the values were obtained:
[1] = target: human acetyl-CoA carboxylase 2 (hACC2) (Homo sapiens, UniProt O00763); assay: In vitro ACC enzyme inhibition (ADP fluorescence), hACC2; format: biochemical; conditions: pre-incubated 15 minutes, 1 hour at room temperature
Description: (§1) To evaluate the ability of a test compound to inhibit acetyl-CoA carboxylase (ACC) by determining the IC50 value.
(§2) 1. Proteins: human acetyl-CoA carboxylase 1 (hACC1) and human acetyl-CoA carboxylase 2 (hACC2).
(§3) 3. Cofactors: acetyl-CoA and ATP (adenosine triphosphate)
(§4) 4. Activator: potassium citrate
(§5) 1. One-fold enzyme/substrate/cofactor was added to microwells of a well plate.
(§6) 2. According to an Acoustic technique, a solution of a compound in DMSO was added to the enzyme mixture, and the resulting mixture was pre-incubated for 15 minutes.
(§7) 3. ATP was added thereto to initiate the reaction, and the mixture was shaken uniformly.
(§8) 4. The mixture was incubated for 1 hour at room temperature.
(§9) 5. The reaction was quenched, and then incubated for additional 40 minutes.
(§10) 6. A detection reagent was added and the resulting mixture was incubated for 30 minutes.
(§11) 7. Fluorescence was tested.
(§12) 8. Data analysis was performed: based on the standard curve of ADP, the fluorescence signal was converted to the ADP product concentration and the enzyme activity was calculated. The curve was fitted using Graphpad Prism software to obtain the IC50 value.

[2] = target: human acetyl-CoA carboxylase 1 (hACC1) (Homo sapiens, UniProt Q13085); assay: In vitro ACC enzyme inhibition (ADP fluorescence), hACC1; format: biochemical; conditions: pre-incubated 15 minutes, 1 hour at room temperature
Description: as §1, §2, §3, §4, §5, §6, §7, §8, §9, §10, §11, §12

[3] = system: HFD+CCl4-induced NASH mouse model; assay: In vivo pharmacodynamic study in HFD+CCl4-induced NASH mouse model; conditions: HFD+CCl4 mice; 0.5, 1, 3 mg/kg by gavage QD day 0 to day 27; reference I-181 3 mg/kg
Text: To study the effect of a compound on improving NASH and liver fibrosis in an HFD+CCl4 mouse model, with I-181 as a reference compound.
I-181 is an acetyl-CoA carboxylase inhibitor and is currently undergoing a phase II clinical study on non-alcoholic fatty liver disease (NAFLD). The HFD+CCl4 mouse model used in this study is an animal model that simulates human non-alcoholic fatty liver disease evolving into NASH. High-fat diet leads to fat accumulation and steatosis in liver cells; CCl4 (intraperitoneal injection, twice a week) simulates the “second hit” of liver injury.
The modeling for this experiment included two steps: high-fat diet feeding and CCl4 induction. Firstly, the mice were fed with high-fat diet to induce non-alcoholic fatty liver, and the mice weighing more than (>) 38 g were selected and continuously fed with high-fat diet, accompanied by the intraperitoneal injection of 25% CCl4 ([…], twice a week, for a total of four weeks). The day of starting CCl4 administration was set as day 0, and the time of starting CCl4 administration was set as hour 0. On the day of starting CCl4 administration, the administration by gavage was started, and the administration volume of each group was 5 mL/kg, once a day for 4 weeks (28 days). The injection time of CCl4 should be more than 4 hours apart from the first administration time point of the day. […]

[4] = Pharmacokinetic evaluation in C57BL/6 mice; format: in vivo; conditions: mouse, plasma, male C57BL/6 mice
Description: To test the pharmacokinetics of the compound in C57BL/6 mice Experimental materials:
C57BL/6 mice (male, 18 to 30 g, 7 to 9 weeks old, Shanghai Lingchang Biotechnology Co., Ltd.)
A clear solution of a test compound (0.5 mg/ml, 10% DMSO, 10% polyethylene glycol stearate, and 80% water) was injected via tail veins into 4 male C57BL/6 mice (overnight fasting, 7 to 9 weeks old), at a dose of 2.0 mg/kg. A suspension of the test compound or the clear solution thereof (1 mg/ml, 10% PEG400, 90% (0.5% methylcellulose+0.2% Tween 80)) was administered by gavage to 4 male C57BL/6 mice (overnight fasting, 7 to 9 weeks old), at a dose of 10 mg/kg.
Two mice were set in a group and subjected to blood sampling alternatively, with 4 to 5 blood sampling time points per mouse. At 0.0833 h (IV group only), 0.25 h, 0.5 h, 1.0 h, 2.0 h, 4.0 h, 6.0 h, 8.0 h, and 24 h after the mice were administered intravenously or by gavage, about 30 μL of blood was collected by saphenous vein puncture and placed in an anticoagulation tube supplemented with EDTA-K2, and the plasma was separated by centrifugation. The LC-MS/MS method was used to determine the blood drug concentration, and the WinNonlin™ Version 6.3 (Pharsight, Mountain View, Calif.) pharmacokinetic software was used to calculate the relevant pharmacokinetic parameters by the non-compartmental model linear logarithmic trapezoidal method.

[5] = Physical stability test of crystal form A as a solid under temperature, humidity and light (XRPD); format: physicochemical; conditions: 60° C. and 92.5% RH for 5 and 10 days; ICH visible and UV light; 60° C./75% RH 1 and 2 months; 40° C./75% RH 1, 2 and 3 months
Description: In order to evaluate the solid stability of a crystal form A, the influencing factors (high temperature, high humidity and light), accelerated stability conditions and intermediate stability conditions were investigated for the crystal form A.
The crystal form A was placed under high temperature (60° C., closed dish) and high humidity (room temperature, 92.5% RH (relative humidity), wrapped in a parafilm with 5 to 10 small holes) for 5 days and 10 days. According to ICH conditions (visible illuminance reached 1.2E06 Lux·hrs, and ultraviolet illuminance reached 200 W·hrs/m^2), the crystal form A was placed under visible light and ultraviolet light (the shading control group was wrapped in tin foil) in closed dish, and meanwhile, the crystal form A was placed under accelerated stability conditions (60° C./75% RH, wrapped in a parafilm with 5 to 10 small holes) for 1 and 2 months, and under intermediate stability conditions (40° C./75% RH, wrapped in a parafilm with 5 to 10 small holes) for 1, 2 and 3 months. The samples after placement were characterized by XRPD to detect the change of the crystal form.

Chain of human acetyl-CoA carboxylase 2 (hACC2) (O00763 whole entry): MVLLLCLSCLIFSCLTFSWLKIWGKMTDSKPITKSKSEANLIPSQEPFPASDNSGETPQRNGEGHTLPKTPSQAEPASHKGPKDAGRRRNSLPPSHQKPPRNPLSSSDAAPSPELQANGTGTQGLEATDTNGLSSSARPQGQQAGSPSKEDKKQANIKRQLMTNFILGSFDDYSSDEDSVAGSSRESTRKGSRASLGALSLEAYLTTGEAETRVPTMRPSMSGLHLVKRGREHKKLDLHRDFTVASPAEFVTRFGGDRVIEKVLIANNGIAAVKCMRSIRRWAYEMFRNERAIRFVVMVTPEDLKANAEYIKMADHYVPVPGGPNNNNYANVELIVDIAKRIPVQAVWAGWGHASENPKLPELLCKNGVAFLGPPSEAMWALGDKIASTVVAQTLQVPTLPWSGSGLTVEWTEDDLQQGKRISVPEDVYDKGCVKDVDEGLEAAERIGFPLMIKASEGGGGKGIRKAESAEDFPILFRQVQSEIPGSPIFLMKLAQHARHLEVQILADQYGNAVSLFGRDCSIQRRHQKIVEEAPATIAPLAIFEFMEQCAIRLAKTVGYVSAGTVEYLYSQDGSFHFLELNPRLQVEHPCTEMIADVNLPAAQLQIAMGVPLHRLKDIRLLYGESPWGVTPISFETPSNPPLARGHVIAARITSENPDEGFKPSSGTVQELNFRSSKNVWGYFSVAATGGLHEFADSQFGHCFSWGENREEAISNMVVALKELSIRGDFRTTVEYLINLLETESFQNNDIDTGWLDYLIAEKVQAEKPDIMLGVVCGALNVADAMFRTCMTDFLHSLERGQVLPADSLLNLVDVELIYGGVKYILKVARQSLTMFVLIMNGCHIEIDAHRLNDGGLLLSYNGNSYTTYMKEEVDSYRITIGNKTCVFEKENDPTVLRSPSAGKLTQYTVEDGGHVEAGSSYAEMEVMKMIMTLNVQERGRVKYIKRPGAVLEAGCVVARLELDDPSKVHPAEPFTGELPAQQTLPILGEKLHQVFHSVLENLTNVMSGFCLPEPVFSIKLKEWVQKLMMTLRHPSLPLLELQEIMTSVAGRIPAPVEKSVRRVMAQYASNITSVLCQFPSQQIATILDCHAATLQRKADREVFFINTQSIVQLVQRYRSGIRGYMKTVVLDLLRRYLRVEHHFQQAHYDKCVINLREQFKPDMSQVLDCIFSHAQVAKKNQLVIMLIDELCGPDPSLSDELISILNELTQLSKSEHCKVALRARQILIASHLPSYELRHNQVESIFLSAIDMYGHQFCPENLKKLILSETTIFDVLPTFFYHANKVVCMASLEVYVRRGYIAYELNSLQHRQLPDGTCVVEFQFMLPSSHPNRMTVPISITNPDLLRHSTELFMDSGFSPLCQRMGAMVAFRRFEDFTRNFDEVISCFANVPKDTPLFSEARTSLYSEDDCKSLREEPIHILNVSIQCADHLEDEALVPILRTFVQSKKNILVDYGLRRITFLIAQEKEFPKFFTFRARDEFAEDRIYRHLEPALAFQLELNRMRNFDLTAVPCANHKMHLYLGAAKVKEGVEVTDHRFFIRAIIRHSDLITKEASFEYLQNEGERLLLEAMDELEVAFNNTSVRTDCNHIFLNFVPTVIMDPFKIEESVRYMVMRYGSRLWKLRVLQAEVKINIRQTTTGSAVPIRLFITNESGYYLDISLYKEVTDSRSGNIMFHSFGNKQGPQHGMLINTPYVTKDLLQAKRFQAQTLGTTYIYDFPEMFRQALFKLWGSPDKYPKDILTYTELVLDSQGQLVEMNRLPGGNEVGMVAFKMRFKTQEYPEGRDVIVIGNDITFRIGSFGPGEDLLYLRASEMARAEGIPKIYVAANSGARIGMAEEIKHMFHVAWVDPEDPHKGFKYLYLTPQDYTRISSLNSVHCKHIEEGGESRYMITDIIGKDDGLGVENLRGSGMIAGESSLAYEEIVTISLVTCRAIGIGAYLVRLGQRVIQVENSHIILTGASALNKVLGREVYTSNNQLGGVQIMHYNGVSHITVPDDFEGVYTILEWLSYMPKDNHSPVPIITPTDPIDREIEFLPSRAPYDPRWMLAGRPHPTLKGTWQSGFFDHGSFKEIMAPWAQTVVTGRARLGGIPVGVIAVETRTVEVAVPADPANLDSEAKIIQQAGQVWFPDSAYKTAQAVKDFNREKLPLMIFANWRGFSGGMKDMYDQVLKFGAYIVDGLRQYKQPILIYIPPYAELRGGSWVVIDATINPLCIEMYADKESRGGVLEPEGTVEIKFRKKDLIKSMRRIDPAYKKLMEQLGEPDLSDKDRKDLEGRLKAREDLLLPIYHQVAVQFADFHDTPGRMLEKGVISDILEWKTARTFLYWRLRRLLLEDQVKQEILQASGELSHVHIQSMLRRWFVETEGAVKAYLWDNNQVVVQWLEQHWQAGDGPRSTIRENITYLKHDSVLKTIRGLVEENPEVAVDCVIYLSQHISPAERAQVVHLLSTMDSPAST

| IC50 [1] | IC50 [2] | bioavailability ([4]; po, gavage 10 mg/kg vs IV 2.0 mg/kg, read-out: Bioavailability F) | clearance ([4]; IV 2.0 mg/kg and gavage 10 mg/kg study, route per parameter not given, read-out: Clearance rate) | AUC ([4]; IV 2.0 mg/kg and gavage 10 mg/kg study, route per parameter not given, read-out: Concentration integral AUC) | half-life ([4]; IV 2.0 mg/kg and gavage 10 mg/kg study, route per parameter not given, read-out: Half-life T1/2 (converted)) | SMILES | Efficacy on NAS versus reference compound [3] | Efficacy on fibrosis versus reference compound [3] | Change of the crystal form (XRPD) after placement [5] |
| --- | --- | --- | --- | --- | --- | --- | --- | --- | --- |
| 10.3 nM | 14.1 nM | 66.7% | 27.3 mL/min/kg | 7.21 µM·h | 1.85 h | COc1ccccc1[C@H](Cn1nc(C(C)(C)C(=O)O)c(=O)c2c(C)c(-c3ncco3)sc21)OC1CCOCC1 [Compound of formula (I)] | achieves the same efficacy as the reference compound at a higher dose | achieves the same efficacy as the reference compound at a higher dose |  |
|  |  |  |  |  |  | COc1ccccc1[C@H](Cn1nc(C(C)(C)C(=O)O)c(=O)c2c(C)c(-c3ncco3)sc21)OC1CCOCC1 [crystal form A] |  |  | remains unchanged under all stability conditions |
